Results as given in ChEMBL document CHEMBL1201862, “PubChem BioAssay data set” (2004).
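Test compounds were applied to cells in 96-well plates for 48 hours at 5 doses. GI50: concentration for 50% inhibition of growth.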 Calls of active or inactive are those of the source. No stated cut-off is given here; in the data, active = GI50 up to about 1.1 µM and inactive = higher.

Columns and labels:
Assay in all cases: DTP human tumour cell line panel, 48 h
HL-60 = tested on: HL-60
UO-31 = tested on: UO-31
K562 = tested on: K562
NCI-H460 = tested on: NCI-H460
EKVX = tested on: EKVX
RPMI-8226 = tested on: RPMI-8226
A549 = tested on: A549
M14 = tested on: M14
UACC-257 = tested on: UACC-257
DMS-114 = tested on: DMS-114
SN12C = tested on: SN12C
CCRF-CEM = tested on: CCRF-CEM
HCC 2998 = tested on: HCC 2998
DMS-273 = tested on: DMS-273
NCI-H23 = tested on: NCI-H23
M19-MEL = tested on: M19-MEL
KM-20L2 = tested on: KM-20L2
SF-295 = tested on: SF-295
HCT-116 = tested on: HCT-116
HOP-18 = tested on: HOP-18
UACC-62 = tested on: UACC-62
TK-10 = tested on: TK-10
NCI-H226 = tested on: NCI-H226
RXF 393 = tested on: RXF 393
HCT-15 = tested on: HCT-15
ACHN = tested on: ACHN
NCI-H522 = tested on: NCI-H522
HOP-92 = tested on: HOP-92
COLO 205 = tested on: COLO 205
HT-29 = tested on: HT-29
U-251 = tested on: U-251
CAKI-1 = tested on: CAKI-1
SF-268 = tested on: SF-268
SNB-19 = tested on: SNB-19
LOX IMVI = tested on: LOX IMVI
786-0 = tested on: 786-0
OVCAR-4 = tested on: OVCAR-4
Malme-3M = tested on: Malme-3M
SW-620 = tested on: SW-620
DLD-1 = tested on: DLD-1
SNB-78 = tested on: SNB-78
OVCAR-3 = tested on: OVCAR-3
KM12 = tested on: KM12
RXF 631 = tested on: RXF 631
SNB-75 = tested on: SNB-75
IGROV-1 = tested on: IGROV-1
HOP-62 = tested on: HOP-62
SK-MEL-28 = tested on: SK-MEL-28
SF-539 = tested on: SF-539
MOLT-4 = tested on: MOLT-4
A498 = tested on: A498
OVCAR-5 = tested on: OVCAR-5
SR = tested on: SR
SK-OV-3 = tested on: SK-OV-3
LXFL 529 = tested on: LXFL 529
OVCAR-8 = tested on: OVCAR-8
SK-MEL-2 = tested on: SK-MEL-2
SK-MEL-5 = tested on: SK-MEL-5
XF498 = tested on: XF498

Structure (SMILES): Cc1c(C(=O)/C=C/c2ccc(Cl)cc2)[n+]([O-])c2ccccc2[n+]1[O-]
- GI50 (HL-60): 5.92 µM (inactive)
- GI50 (UO-31): 16.1 µM (inactive)
- GI50 (K562): 4.6 µM (inactive)
- GI50 (NCI-H460): 11.3 µM (inactive)
- GI50 (EKVX): 15.6 µM (inactive)
- GI50 (RPMI-8226): 11.1 µM (inactive)
- GI50 (A549): 12.4 µM (inactive)
- GI50 (M14): 15.6 µM (inactive)
- GI50 (UACC-257): 15.8 µM (inactive)
- GI50 (DMS-114): 4.1 µM (inactive)
- GI50 (SN12C): 7.1 µM (inactive)
- GI50 (CCRF-CEM): 5.57 µM (inactive)
- GI50 (HCC 2998): 11.8 µM (inactive)
- GI50 (DMS-273): 7.64 µM (inactive)
- GI50 (NCI-H23): 10.4 µM (inactive)
- GI50 (M19-MEL): 15.2 µM (inactive)
- GI50 (KM-20L2): 7.11 µM (inactive)
- GI50 (SF-295): 12.2 µM (inactive)
- GI50 (HCT-116): 5.93 µM (inactive)
- GI50 (HOP-18): 20.6 µM (inactive)
- GI50 (UACC-62): 12.6 µM (inactive)
- GI50 (TK-10): 18.2 µM (inactive)
- GI50 (NCI-H226): 16.4 µM (inactive)
- GI50 (RXF 393): 4.18 µM (inactive)
- GI50 (HCT-15): 9.23 µM
- GI50 (ACHN): 14.7 µM (inactive)
- GI50 (NCI-H522): 3.78 µM (inactive)
- GI50 (HOP-92): 15 µM (inactive)
- GI50 (COLO 205): 14.1 µM (inactive)
- GI50 (HT-29): 12.9 µM (inactive)
- GI50 (U-251): 12.9 µM (inactive)
- GI50 (CAKI-1): 9.2 µM (inactive)
- GI50 (SF-268): 14.7 µM (inactive)
- GI50 (SNB-19): 14.4 µM (inactive)
- GI50 (LOX IMVI): 7.28 µM (inactive)
- GI50 (786-0): 12.6 µM (inactive)
- GI50 (OVCAR-4): 10.5 µM (inactive)
- GI50 (Malme-3M): 19.6 µM (inactive)
- GI50 (SW-620): 8.69 µM (inactive)
- GI50 (DLD-1): 7.94 µM (inactive)
- GI50 (SNB-78): 22.1 µM (inactive)
- GI50 (OVCAR-3): 12.5 µM (inactive)
- GI50 (KM12): 10.8 µM (inactive)
- GI50 (RXF 631): 34.5 µM (inactive)
- GI50 (SNB-75): 15.3 µM (inactive)
- GI50 (IGROV-1): 11.8 µM (inactive)
- GI50 (HOP-62): 26.5 µM (inactive)
- GI50 (SK-MEL-28): 17 µM (inactive)
- GI50 (SF-539): 12.1 µM (inactive)
- GI50 (MOLT-4): 13.8 µM (inactive)
- GI50 (A498): 14.2 µM (inactive)
- GI50 (OVCAR-5): 15 µM (inactive)
- GI50 (SR): 19.3 µM (inactive)
- GI50 (SK-OV-3): 21.2 µM (inactive)
- GI50 (LXFL 529): 9.08 µM (inactive)
- GI50 (OVCAR-8): 11.2 µM (inactive)

Structure (SMILES): COc1ccccc1C12OC(=O)C1(C)Oc1ccccc1C2=O (stereo unspecified)
- GI50 (HL-60): > 100 µM (inactive)
- GI50 (UO-31): > 100 µM (inactive)
- GI50 (K562): > 100 µM (inactive)
- GI50 (NCI-H460): > 100 µM (inactive)
- GI50 (EKVX): > 100 µM (inactive)
- GI50 (RPMI-8226): > 100 µM (inactive)
- GI50 (A549): > 100 µM (inactive)
- GI50 (M14): > 100 µM (inactive)
- GI50 (UACC-257): > 100 µM (inactive)
- GI50 (DMS-114): > 100 µM (inactive)
- GI50 (SN12C): > 100 µM (inactive)
- GI50 (CCRF-CEM): > 100 µM (inactive)
- GI50 (HCC 2998): > 100 µM (inactive)
- GI50 (DMS-273): 22.5 µM (inactive)
- GI50 (NCI-H23): > 100 µM (inactive)
- GI50 (SK-MEL-2): > 100 µM (inactive)
- GI50 (M19-MEL): > 100 µM (inactive)
- GI50 (KM-20L2): > 100 µM (inactive)
- GI50 (SF-295): > 100 µM (inactive)
- GI50 (HCT-116): > 100 µM (inactive)
- GI50 (UACC-62): > 100 µM (inactive)
- GI50 (TK-10): > 100 µM (inactive)
- GI50 (NCI-H226): > 100 µM (inactive)
- GI50 (RXF 393): > 100 µM (inactive)
- GI50 (HCT-15): > 100 µM
- GI50 (ACHN): > 100 µM (inactive)
- GI50 (HOP-92): 65 µM (inactive)
- GI50 (COLO 205): > 100 µM (inactive)
- GI50 (SK-MEL-5): > 100 µM (inactive)
- GI50 (HT-29): > 100 µM (inactive)
- GI50 (U-251): > 100 µM (inactive)
- GI50 (XF498): > 100 µM (inactive)
- GI50 (SF-268): > 100 µM (inactive)
- GI50 (SNB-19): > 100 µM (inactive)
- GI50 (LOX IMVI): 26.8 µM (inactive)
- GI50 (786-0): > 100 µM (inactive)
- GI50 (OVCAR-4): > 100 µM (inactive)
- GI50 (Malme-3M): > 100 µM (inactive)
- GI50 (SW-620): > 100 µM (inactive)
- GI50 (DLD-1): > 100 µM (inactive)
- GI50 (SNB-78): > 100 µM (inactive)
- GI50 (OVCAR-3): > 100 µM (inactive)
- GI50 (KM12): > 100 µM (inactive)
- GI50 (RXF 631): 30.8 µM (inactive)
- GI50 (SNB-75): 34.8 µM (inactive)
- GI50 (IGROV-1): > 100 µM (inactive)
- GI50 (HOP-62): > 100 µM (inactive)
- GI50 (SK-MEL-28): > 100 µM (inactive)
- GI50 (SF-539): > 100 µM (inactive)
- GI50 (MOLT-4): > 100 µM (inactive)
- GI50 (A498): > 100 µM (inactive)
- GI50 (OVCAR-5): > 100 µM (inactive)
- GI50 (SK-OV-3): > 100 µM (inactive)
- GI50 (LXFL 529): > 100 µM (inactive)
- GI50 (OVCAR-8): > 100 µM (inactive)

Structure (SMILES): O=C[C@]12CC=C3OC4OC5(CCCCC5)OC4[C@H]3[C@H]1C(=O)C=CC2=O (stereo partly specified)
- GI50 (HL-60): 0.406 µM (active)
- GI50 (UO-31): 12.1 µM (inactive)
- GI50 (K562): > 10 µM (inactive)
- GI50 (NCI-H460): 23.9 µM (inactive)
- GI50 (EKVX): 16.1 µM (inactive)
- GI50 (A549): 11.6 µM (inactive)
- GI50 (M14): 19 µM (inactive)
- GI50 (UACC-257): 21.1 µM (inactive)
- GI50 (DMS-114): 19.1 µM (inactive)
- GI50 (SN12C): 52.8 µM (inactive)
- GI50 (CCRF-CEM): 2.44 µM (inactive)
- GI50 (HCC 2998): 32.7 µM (inactive)
- GI50 (DMS-273): 39.2 µM (inactive)
- GI50 (NCI-H23): > 10 µM (inactive)
- GI50 (SK-MEL-2): 33.7 µM (inactive)
- GI50 (M19-MEL): 23.1 µM (inactive)
- GI50 (SF-295): 34.6 µM (inactive)
- GI50 (HCT-116): 19.9 µM (inactive)
- GI50 (UACC-62): 21.5 µM (inactive)
- GI50 (TK-10): 35.1 µM (inactive)
- GI50 (NCI-H226): > 100 µM (inactive)
- GI50 (RXF 393): 12.6 µM (inactive)
- GI50 (HCT-15): 18.7 µM
- GI50 (ACHN): 18.2 µM (inactive)
- GI50 (NCI-H522): 5.9 µM (inactive)
- GI50 (SK-MEL-5): 17.7 µM (inactive)
- GI50 (HT-29): 40.2 µM (inactive)
- GI50 (U-251): 22.7 µM (inactive)
- GI50 (XF498): 14.6 µM (inactive)
- GI50 (CAKI-1): 23 µM (inactive)
- GI50 (SF-268): 8.71 µM (inactive)
- GI50 (SNB-19): 28.4 µM (inactive)
- GI50 (786-0): 9.84 µM (inactive)
- GI50 (OVCAR-4): 16.7 µM (inactive)
- GI50 (Malme-3M): 17.6 µM (inactive)
- GI50 (SW-620): 19.3 µM (inactive)
- GI50 (DLD-1): 17.3 µM (inactive)
- GI50 (SNB-78): 14.2 µM (inactive)
- GI50 (KM12): 29.4 µM (inactive)
- GI50 (RXF 631): 35.6 µM (inactive)
- GI50 (HOP-62): > 100 µM (inactive)
- GI50 (SK-MEL-28): 26.7 µM (inactive)
- GI50 (SF-539): 3.55 µM (inactive)
- GI50 (MOLT-4): 2.85 µM (inactive)
- GI50 (A498): > 100 µM (inactive)
- GI50 (OVCAR-5): 53.3 µM (inactive)
- GI50 (SR): 2.52 µM (inactive)
- GI50 (SK-OV-3): 45.8 µM (inactive)
- GI50 (LXFL 529): 19 µM (inactive)
- GI50 (OVCAR-8): 17.6 µM (inactive)
